“Also recorded” adds a separate entry of the source. Like-named read-outs stand apart in the source and are kept apart here.
How the values were obtained:
[1] = system: primary CLL cells; settings: human, 6 h, 30 µM
[2] = system: Maver-1 cells (mantle cell lymphoma); experiment: Cytotoxicity, TMRE flow cytometry viability, Maver-1 cells (Example II.1); type: cell-based; settings: Homo sapiens, Maver1, 24 hours, TMRE positive cells normalized to control, ratio to PF670462, <1 = higher cytotoxicity than PF670462, read-out: Viability of cells, Compound of formula I (100 μM), relative to PF670462 (100 μM), Maver-1 cells (mantle cell lymphoma)
[3] = system: primary CLL cells; experiment: Specificity of cytotoxic activity, TMRE viability, primary CLL cells (Example II.4); settings: for dose-dependent cytotoxic effect / apoptosis of primary CLL cells (FIG. 1): 6 h, indicated doses of inhibitors; for selective toxicity towards cancer cells vs nonmalignant controls (FIG. 4, Table 3): primary CLL cells vs healthy cells
[4] = Specificity of cytotoxic activity, TMRE viability, primary nonmalignant control cells (Example II.4); type: cell-based; settings: human, N = 4, read-out: Viability - mean % of control, Primary healthy cells
[5] = system: Maver1; experiment: Cytotoxicity on panel of cell lines, TMRE viability (Example II.2); type: cell-based; settings: Homo sapiens, 24 hours, mean, control = 1, read-out: cell viability relative to control, Maver1 (MCL)
Experimental: (§1) The leukemia and lymphoma-derived cell lines [MEC-1 cell line (derived from chronic lymphocytic leukemia—CLL), Nalm-16 (acute lymphocytic leukemia—ALL), K562 (chronic myeloid leukemia—CML), HL-60 (acute myeloid leukemia—AML), Maver-1 and Mino (mantle cell lymphoma—MCL), BL-41 (Burkitt lymphoma—BL), WSU-NHL (follicular lymphoma—FL), SUDHL (diffuse large B-cell lymphoma—DLBCL)], primary CLL cells and nonmalignant control primary cells were cultured in suspension in flasks under the following conditions: RPMI 1640 medium (Hyclone) supplemented with 10% fetal bovine serum (FBS, Gibco) and 1% penicillin/streptomycin (Life Technologies), 37° C., 5% CO2 and 95% relative humidity, with optimal culture cell density 5×10^6 cells/mL in case of primary cells and 0.5-1×10^6 cells/mL in case of cell lines. The adherent cell lines [A375 (derived from malignant melanoma), MDA-MB-231 and MCF-7 (breast cancer), MIA-PA-CA and PANC1 (pancreatic cancer), PC3 (prostate cancer), OVCAR4 (ovarian cancer) and HEPG2 (hepatocellular carcinoma)] were cultured on plates under the same conditions using RPMI1640 or DMEM medium (Gibco) according to instructions provided by the distributor (DSMZ/ATCC).
(§2) The tested cell lines were incubated with inhibitors at 30 μM concentration or corresponding amount of solvent (DMSO, Sigma Aldrich) in standard culture conditions, seeded as 10^5 cells/500 μl per well in a 24-well plate. Experiments were performed in technical duplicates and 2-3 biological repetitions per cell line. Viability of cells was assessed after 24 hours.
(§3) Relative values are presented as a mean value, showing ratio to the effect of control. Relative value <1=lower viability than control condition.

[6] = system: MDA-MB-231; experiment: as above; type: cell-based; settings: Homo sapiens, 24 hours, mean, control = 1, read-out: cell viability relative to control, MDA-MB-231 (breast cancer)
Experimental: as §1, §2, §3

[7] = system: OVCAR4; experiment: as above; type: cell-based; settings: Homo sapiens, OVCAR-4, 24 hours, mean, control = 1, read-out: cell viability relative to control, OVCAR4 (ovarian cancer)
Experimental: as §1, §2, §3

[8] = system: BL-41; experiment: as above; type: cell-based; settings: Homo sapiens, 24 hours, mean, control = 1, read-out: cell viability relative to control, BL-41 (BL)
Experimental: as §1, §2, §3

[9] = system: MEC-1; experiment: as above; type: cell-based; settings: Homo sapiens, MEC1, 24 hours, mean, control = 1, read-out: cell viability relative to control, MEC-1 (CLL)
Experimental: as §1, §2, §3

[10] = system: MCF-7; experiment: as above; type: cell-based; settings: Homo sapiens, MCF7, 24 hours, mean, control = 1, read-out: cell viability relative to control, MCF-7 (breast cancer)
Experimental: as §1, §2, §3

[11] = system: A375; experiment: as above; type: cell-based; settings: Homo sapiens, A-375, 24 hours, mean, control = 1, read-out: cell viability relative to control, A375 (melanoma)
Experimental: as §1, §2, §3

[12] = system: PANC1; experiment: as above; type: cell-based; settings: Homo sapiens, PANC-1, 24 hours, mean, control = 1, read-out: cell viability relative to control, PANC1 (pancreatic cancer)
Experimental: as §1, §2, §3

[13] = system: primary CLL; experiment: as above; type: cell-based; settings: Homo sapiens, 24 hours, mean, control = 1, read-out: cell viability relative to control, primary CLL
Experimental: as §1, §2, §3

[14] = system: SUDHL; experiment: as above; type: cell-based; settings: 24 hours, mean, control = 1, read-out: cell viability relative to control, SUDHL (DLBCL)
Experimental: as §1, §2, §3

[15] = system: Mino; experiment: as above; type: cell-based; settings: Homo sapiens, 24 hours, mean, control = 1, read-out: cell viability relative to control, Mino (MCL)
Experimental: as §1, §2, §3

[16] = system: MIA-PA-CA; experiment: as above; type: cell-based; settings: Homo sapiens, MIA PaCa-2, 24 hours, mean, control = 1, read-out: cell viability relative to control, MIA-PA-CA (pancreatic cancer)
Experimental: as §1, §2, §3

[17] = system: Nalm16; experiment: as above; type: cell-based; settings: 24 hours, mean, control = 1, read-out: cell viability relative to control, Nalm16 (ALL)
Experimental: as §1, §2, §3

[18] = system: HEPG2; experiment: as above; type: cell-based; settings: Homo sapiens, 24 hours, mean, control = 1, read-out: cell viability relative to control, HEPG2 (hepatocellular carcinoma)
Experimental: as §1, §2, §3

[19] = system: PC3; experiment: as above; type: cell-based; settings: Homo sapiens, PC-3, 24 hours, mean, control = 1, read-out: cell viability relative to control, PC3 (prostate cancer)
Experimental: as §1, §2, §3

[20] = system: HL60; experiment: as above; type: cell-based; settings: Homo sapiens, HL-60, 24 hours, mean, control = 1, read-out: cell viability relative to control, HL60 (AML)
Experimental: as §1, §2, §3

[21] = system: K562; experiment: as above; type: cell-based; settings: Homo sapiens, 24 hours, mean, control = 1, read-out: cell viability relative to control, K562 (CML)
Experimental: as §1, §2, §3

[22] = system: WSU-NHL; experiment: as above; type: cell-based; settings: Homo sapiens, 24 hours, mean, control = 1, read-out: cell viability relative to control, WSU-NHL (FL)
Experimental: as §1, §2, §3

[23] = system: primary CLL cells; experiment: Cytotoxicity, TMRE flow cytometry viability, primary CLL cells (Example II.1); type: cell-based; settings: Homo sapiens, CLL cell, 6 hours, TMRE positive cells normalized to control, ratio to PF670462, <1 = higher cytotoxicity than PF670462, read-out: Viability of cells, Compound of formula I (100 μM), relative to PF670462 (100 μM), CLL primary cells
[24] = system: primary CLL cells; experiment: Induction of apoptosis, western blotting of cleaved PARP in primary CLL cells; type: cell-based, human; settings: 10 μM, overnight, listed as preparatory example 3

Row | Structure (SMILES) | viability at 100 µM [2] | viability at 6 h, 30 µM [4] | viability at 30 µM [5] | viability at 30 µM [6] | viability at 30 µM [7] | viability at 30 µM [8] | viability at 30 µM [9] | viability at 30 µM [10] | viability at 30 µM [11] | viability at 30 µM [12] | viability at 30 µM [13] | viability at 30 µM [14] | viability at 30 µM [15] | viability at 30 µM [16] | viability at 30 µM [17] | viability at 30 µM [18] | viability at 30 µM [19] | viability at 30 µM [20] | viability at 30 µM [21] | viability at 100 µM [23] | also measured
1 | Nc1nccc(-c2c(-c3ccc(F)cc3)ncn2C2CCCCC2)n1 [PF670462, reference compound] | 100% | 95.5% | 85% | 99% | 95% | 82% | 92% | 55% | 94% | 93% | 103% | 93% | 84% | 104% | 94% | 78% | 115% | 98% | 97% | 100% | Viability - mean % of control, Primary CLL [1]: 98.3% (N = 8); induction of apoptosis in primary CLL cells or nonmalignant control (healthy) cells ([3]; 30 μM, 6 hours): not able to induce apoptosis; dose-dependent cytotoxic effect / apoptosis of primary CLL cells (FIG. 1) [3]: lacks this effect; viability at 30 µM [22]: 110%
2 | Fc1ccc(-c2ncn(C3CCCCC3)c2-c2ccnc3[nH]ccc23)cc1 [Preparative Example 3, 4-(1-cyclohexyl-4-(4-fluorophenyl)-1H-imidazol-5-yl)-1H-pyrrolo[2,3-b]pyridine] | 27% | 80.9% | 54% | 69% | 73% | 17% | 43% | 53% | 64% | 65% | 69% | 18% | 38% | 61% | 32% | 47% | – | 72% | 81% | 30% | Viability - mean % of control, Primary CLL ([3]; 30 μM, 6 hours, N = 8): 37.3% (N = 8); selective toxicity towards cancer cells vs nonmalignant controls (FIG. 4, Table 3) ([3]; 30 μM, 6 hours): significantly higher cytotoxic effects towards cancer cells than nonmalignant controls; selective toxicity towards cancer cells vs nonmalignant controls (FIG. 4, Table 3) ([3]; 30 μM, 6 hours, listed as prep. example 3): selective towards cancer cells; dose-dependent cytotoxic effect / apoptosis of primary CLL cells (FIG. 1) ([3]; listed as preparatory example 3): induced dose-dependently; cleaved PARP, marker of apoptosis (FIG. 2) [24]: Increased PARP cleavage; also recorded: increase of cleaved PARP
3 | Cc1cc2c(-c3c(-c4ccc(F)cc4)ncn3C3CCCCC3)ccnc2[nH]1 [Preparative Example 39, 4-(1-cyclohexyl-4-(4-fluorophenyl)-1H-imidazol-5-yl)-2-methyl-1H-pyrrolo[2,3-b]pyridine] | 2% | – | 2% | 71% | 42% | 10% | 22% | – | 16% | 44% | 48% | 24% | 26% | 56% | 6% | 55% | 29% | 62% | 73% | 10% | viability at 30 µM [22]: 88%

From US11498920B2, “4-(1H-imidazol-5-yl)-1H-pyrrolo[2, 3-b] pyridines for use in the treatment of leukaemias, lymphomas and solid tumors” (MASARYKOVA UNIVERZITA, priority 2018, dated 2022)
